# Data reported in patent US7125848B2, “Methods of treating non-inflammatory gastrointestinal tract disorders using Cav2.2 subunit calcium channel modulators” (Dynogen Pharmaceuticals, Inc., priority 2003, dated 2006).
# Test system: HVA calcium channel currents in GI tract afferent DRG neurons
# Type: cell-based, rat
substance,measurement,value
Omega-conotoxin GVIA (CKSHYPGSSCSHYPTSYNCCRSCNHYPYTKRCY; VARIANT (0)...(0) omega-conotoxin GVIA; listed as Conus geographus),calcium current amplitude as percentage of control amplitudes,59±4%
